Key:
Bemisia tabaci = test: Example D: Bemisia tabaci, leaf dip method (cotton leaves); format: in vivo; conditions: foliar, freshly emerged adults, 72 h after release, dead and moribund combined, read-out: percent mortality
Description: (§1) Test solutions were prepared according to the procedure described herein below (500 PPM):
(§2) • 1. Eppendorf Vortex mixer (ThermoMixer C) and 1.5 mL Eppendorf tubes • 2. Beaker—100 mL • 3. Micro-pipette Reagents: • 1. Surfactant Solution • 2. De-mineralized (DM) Water Procedure: • 1. Weigh 10 mg of the compound of the present invention to be tested in an Eppendorf Tube. • 2. Add 200 mg of the Surfactant Solution into the tube. • 3. Fix the tube in Eppendorf Vortex mixer and start vortexing at 2000 rpm. • 4. Mix on Vortex mixer for 30 min. After 30 min, observe the sample over a microscope at 400× resolution. • 5. Add 1.0 mL DM water into the tube, close the cap, shake the tube thoroughly and transfer the contents, along with the beads, into a beaker. • 6. To rinse the tube, add another 1.0 mL of DM water into the tube, close the cap, shake well and transfer this into the same beaker. • 7. Repeat […] one more time so that the tube is rinsed well and all the compound of the present invention is transferred to the beaker. • 8. Add 16.8 mL of DM water into the beaker and stir well. • 9. Immediately use this sample for biological testing. • 10. Further dilutions can be prepared by taking appropriate quantity of the aliquot of Step 8, immediately after stirring, and diluting as per requirement. The sample solution must be well mixed just before biological testing.
Leaf dip method was used for screening, wherein the required quantity of the compounds were weighed and dissolved in the test solution into the tube and vortex at 2000 rpm with Zirconia beads for 90 min and for proper mixing, then mixed with 0.01% Triton-X solution to get the desired test concentration. Cotton leaves were dipped in the solution for 10 seconds, shade dried for 20 min and then leaves were kept in glass units with petiole dipped in water. […] Observations on dead, moribund and live […] were recorded at 72 h after the release. Percent mortality was calculated by combining dead and moribund adults. […]

Myzus persicae = test: Example E: Myzus persicae, leaf dip method (capsicum leaves); format: in vivo; conditions: foliar, third instar nymphs, 72 h after release, dead and moribund combined, read-out: percent mortality
Description: as §1, §2
Leaf dip method was used for screening, wherein the required quantity of the compounds were weighed and dissolved in the test solution into the tube and vortex at 2000 rpm with Zirconia beads for 90 min and for proper mixing, then mixed with 0.01% Triton-X solution to get the desired test concentration. Capsicum leaves were dipped in the solution for 10 seconds, shade dried for 20 min and then leaves were kept in glass units with petiole dipped in water. Known numbers of third instar nymphs were released and were kept in the plant growth chamber at a temperature of 25° C. and Relative Humidity of 70%. Observations on dead, moribund and live nymphs were recorded at 72 h after the release. Percent mortality was calculated by combining dead and moribund nymphs. The following compound numbers

Cc1cc(Cl)cc(C(=O)NC(C)(C)C)c1NC(=O)c1cc(OC2CS(=O)(=O)C2)nn1-c1ncccc1Cl [Compound 99, N-(2-(tert-butylcarbamoyl)-4-chloro-6-methylphenyl)-1-(3-chloropyridin-2-yl)-3-((1,1-dioxidothietan-3-yl)oxy)-1H-pyrazole-5-carboxamide]
mortality at 300 ppm (Bemisia tabaci): > 50%

CC(C)(C)NC(=O)c1cc(Cl)cc(Cl)c1NC(=O)c1cc(OC2CSC2)nn1-c1ncccc1Cl [Compound 176, N-(2-(tert-butylcarbamoyl)-4,6-dichlorophenyl)-1-(3-chloropyridin-2-yl)-3-(thietan-3-yloxy)-1H-pyrazole-5-carboxamide]
mortality at 300 ppm (Bemisia tabaci): > 50% | mortality at 300 ppm (Myzus persicae): > 50%

Cc1cc(Cl)cc(C(=O)NC(C)(C)C)c1NC(=O)c1cc(OC2CSC2)nn1-c1ncccc1Cl [Compound 97, N-(2-(tert-butylcarbamoyl)-4-chloro-6-methylphenyl)-1-(3-chloropyridin-2-yl)-3-(thietan-3-yloxy)-1H-pyrazole-5-carboxamide]
mortality at 300 ppm (Bemisia tabaci): > 50% | mortality at 300 ppm (Myzus persicae): > 50%

From patent publication US12221436B2, “Anthranilamides, their use as insecticide and processes for preparing the same” (PI INDUSTRIES LTD., priority 2018, dated 2025)
